# Assay results published in patent US12285431B2, “Treatment of Rb-negative tumors using topoisomerase inhibitors in combination with cyclin dependent kinase 4/6 inhibitors” (G1 Therapeutics, Inc., priority 2014, dated 2025).
# Entries after “also recorded” stand apart in the source; their conditions may differ.
# Legend:
# [1] = system: H69 (human small cell lung cancer, Rb-negative) cells; test: Cellular proliferation assay (CellTiter-Glo), H69; format: cell-based; settings: NCI-H69, 96 h, cell viability after four days
# Method: (§1) Further cellular proliferation assays were conducted using the following cancer cell lines: MCF7 (breast adenocarcinoma—Rb-positive), ZR-75-1 (breast ductal carcinoma—Rb-positive), H69 (human small cell lung cancer—Rb-negative) cells, or A2058 (human metastatic melanoma cells—Rb-negative). These cells were seeded in Costar (Tewksbury, Massachusetts) 3093 96 well tissue culture treated white walled/clear bottom plates. Cells were treated with the compounds of Table 1 as nine point dose response dilution series from 10 uM to 1 nM. Cells were exposed to compounds and then cell viability was determined after either four (H69) or six (MCF7, ZR75-1, A2058) days as indicated using the CellTiter-Glo® luminescent cell viability assay (CTG; Promega, Madison, Wisconsin, United States of America) following the manufacturer's recommendations. Plates were read on BioTek (Winooski, Vermont) Syngergy2 multi-mode plate reader. The Relative Light Units (RLU) were plotted as a result of variable molar concentration and data was analyzed using Graphpad (LaJolla, California) Prism 5 statistical software to determine the EC50 for each compound.
# [2] = system: A2058 (human metastatic melanoma cells, Rb-negative); test: Cellular proliferation assay (CellTiter-Glo), A2058; format: cell-based; settings: A2058, 144 h, cell viability after six days
# Method: as §1
# [3] = system: HS68 cells; test: G1 arrest (cellular G1 and S-phase) assay, propidium iodide flow cytometry; format: cell-based, human
# Method: HS68 cells (human skin fibroblast cell line (Rb-positive)) were stained with propidium iodide staining solution and run on Dako Cyan Flow Cytometer. The fraction of cells in G0-G1 DNA cell cycle versus the fraction in S-phase DNA cell cycle was determined using FlowJo 7.2.2 analysis.
# The compounds listed in Table 1 were tested for their ability to arrest HS68 cells at the G1 phase of the cell cycle.
# [4] = target: CDK6/CycD3 (Homo sapiens, UniProt Q00534); test: CDK6/CycD3 kinase assay; settings: read-out: CDK6/CycD3 IC50; Table 3
# Chain of CDK6/CycD3 (Q00534 whole entry, species assumed): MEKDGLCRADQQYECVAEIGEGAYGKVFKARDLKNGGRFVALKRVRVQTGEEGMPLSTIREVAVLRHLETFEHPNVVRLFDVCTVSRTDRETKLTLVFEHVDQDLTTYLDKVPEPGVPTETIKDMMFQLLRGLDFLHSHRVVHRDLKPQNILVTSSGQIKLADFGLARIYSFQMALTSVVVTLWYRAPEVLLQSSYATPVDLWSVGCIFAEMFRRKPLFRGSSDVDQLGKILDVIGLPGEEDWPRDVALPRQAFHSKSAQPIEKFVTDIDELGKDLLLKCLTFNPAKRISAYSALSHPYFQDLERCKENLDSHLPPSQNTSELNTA
# Chain of CDK6/CycD3 (P30281 whole entry partner, species assumed): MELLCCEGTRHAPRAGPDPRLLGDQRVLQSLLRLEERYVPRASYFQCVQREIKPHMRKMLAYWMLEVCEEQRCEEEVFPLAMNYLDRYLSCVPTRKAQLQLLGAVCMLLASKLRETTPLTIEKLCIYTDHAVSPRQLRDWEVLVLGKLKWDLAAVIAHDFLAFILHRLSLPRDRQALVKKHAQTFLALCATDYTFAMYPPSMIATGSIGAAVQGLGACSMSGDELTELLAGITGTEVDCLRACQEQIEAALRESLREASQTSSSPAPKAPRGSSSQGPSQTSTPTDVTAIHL
# [5] = system: MCF7 (breast adenocarcinoma, Rb-positive); test: Cellular proliferation assay (CellTiter-Glo), MCF7; format: cell-based; settings: Homo sapiens, MCF7, 144 h, cell viability after six days
# Method: as §1
# [6] = system: ZR-75-1 (breast ductal carcinoma, Rb-positive); test: Cellular proliferation assay (CellTiter-Glo), ZR-75-1; format: cell-based; settings: Homo sapiens, ZR-75-1, 144 h, cell viability after six days, read-out: ZR75-1 Cellular EC50
# Method: as §1
# [7] = Mouse pharmacokinetics (oral gavage / intravenous); format: in vivo, mice; settings: for AUC 0-inf (uM * h) i.v.: 10 mg/kg intravenous injection; for AUC (uM * h) p.o. / Cmax / Tmax (h) p.o. / t1/2 (h) p.o.: 30 mg/kg oral gavage; for t1/2 (h) p.o.: 30 mg/kg
# [8] = system: Rb phosphorylation (Ser780, Ser807/811) in WM2664 cells; test: Rb phosphorylation western blot, WM2664; format: cell-based; settings: WM2664, 300 nM, 4, 8, 16 and 24 hours
# Method: (§2) The CDK4/6-cyclin D complex is essential for progression from G1 to the S-phase of the DNA cell cycle. This complex phosphorylates the retinoblastoma tumor suppressor protein (Rb). […] Samples were lysed and protein was assayed by western blot analysis. Rb phosphorylation was measured at two sites targeted by the CDK4/6-cyclin D complex, Ser780 and Ser807/811 using species specific antibodies.
# [9] = system: NCI-H69 SCLC xenograft (Rb-negative); format: in vivo
# Source text: An Rb-negative model of small cell lung cancer was used in the following example. Briefly, xenografts of National Cancer Institute (NCI) […] cells were grafted onto the mice (Athymic Nude (Crl:NU(NCr)-Foxn1^nu); 6-12 week old females) using the South Texas Accelerated Research Therapeutics (START) Cell-Based Xenograft (START-CBX) tumor model. H69 cells are human small cell lung cancer cells and are Rb-negative.
# Data collected from the efficacy study included animal weights, observations and tumor dimensions. This information was used to determine agent tolerability based on weight change and gross physiologic changes and anticancer activity based on tumor growth delay or regression. The designated endpoint for this study was an individual tumor volume of 1 cm^3 or 60 days following treatment initiation.
# Tumor fragments from NCI-H69 were harvested from host animals and implanted into immune-deficient mice and the study initiated at a mean tumor volume of approximately 150-250 mm^3.
# Additional details of the study are outlined in Table 6 below. […] Tumor size was examined twice per week and the endpoint for this study was Day 59.
# [10] = system: Rb phosphorylation (Ser780, Ser807/811) in A2058 cells; test: Rb phosphorylation western blot, A2058; format: cell-based; settings: A2058, 300 nM, 4, 8, 16 and 24 hours
# Method: as §2
# [11] = system: A2058 cells (Rb-negative); test: Cell cycle arrest screen, A2058; format: cell-based; settings: 24 hours
# Source text: (§3) To test the ability of the disclosed CDK4/6 inhibitors to induce a clean G1-arrest, a cell based screening method was used consisting of two Rb-positive (tHS68 and WM2664) and one Rb-negative (A2058) cell line. […] At the conclusion of the experiment, cells were harvested, fixed, and stained with propidium iodide (a DNA intercalator), which fluoresces strongly red (emission maximum 637 nm) when excited by 488 nm light. Samples were run on Dako Cyan flow cytometer and >10,000 events were collected for each sample. Data were analyzed using FlowJo 2.2 software developed by TreeStar, Inc.
# [12] = system: Rb phosphorylation (Ser780, Ser807/811) in tHS68 cells; test: Rb phosphorylation western blot, tHS68; format: cell-based; settings: tHS68, 300 nM, 4, 8, 16 and 24 hours
# Method: as §2
# [13] = system: tHS68 cells (Rb-positive); test: Cell cycle arrest screen, tHS68; format: cell-based
# Source text: as §3
# [14] = system: 456 (395 non-mutant) kinases; test: DiscoveRx KINOMEscan profiling; format: binding; settings: single concentration 1000 nM
# [15] = system: WM2664 cells (Rb-positive); test: Cell cycle arrest screen, WM2664; format: cell-based; settings: 24 hours
# Source text: as §3
# [16] = system: NCI-H69 SCLC xenograft (Rb-negative); test: NCI-H69 SCLC xenograft model, Example 156; format: in vivo, mice; settings: Compound T 100 mg/kg po qd×5×4; carboplatin 40 mg/kg and etoposide 4 mg/kg ip twice per week for 3 weeks; topotecan 0.6 mg/kg ip once daily for 5 days; FIG. 11
# [17] = target: CDK2/CyclinE (Homo sapiens, UniProt P24941); test: CDK2/cyclinE kinase assay (Nanosyn, Caliper); format: biochemical; settings: Table 2
# [18] = target: CDK4/CyclinD1 (Homo sapiens, UniProt P11802); test: CDK4/cyclinD1 kinase assay (Nanosyn, Caliper microfluidic kinase detection); format: biochemical; settings: read-out: CDK4/CycD1 IC50
# Chain of CDK4/CyclinD1 (P11802 whole entry, species assumed): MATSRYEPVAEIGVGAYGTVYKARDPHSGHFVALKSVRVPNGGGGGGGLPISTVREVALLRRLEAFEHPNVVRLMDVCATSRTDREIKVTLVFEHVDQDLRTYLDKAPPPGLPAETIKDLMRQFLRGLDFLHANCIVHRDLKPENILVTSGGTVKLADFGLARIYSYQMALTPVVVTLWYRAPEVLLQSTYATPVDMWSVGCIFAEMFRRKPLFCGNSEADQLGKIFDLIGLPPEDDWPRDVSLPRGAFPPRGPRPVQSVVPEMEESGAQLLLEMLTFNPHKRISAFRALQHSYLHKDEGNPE
# Chain of CDK4/CyclinD1 (P24385 whole entry partner, species assumed): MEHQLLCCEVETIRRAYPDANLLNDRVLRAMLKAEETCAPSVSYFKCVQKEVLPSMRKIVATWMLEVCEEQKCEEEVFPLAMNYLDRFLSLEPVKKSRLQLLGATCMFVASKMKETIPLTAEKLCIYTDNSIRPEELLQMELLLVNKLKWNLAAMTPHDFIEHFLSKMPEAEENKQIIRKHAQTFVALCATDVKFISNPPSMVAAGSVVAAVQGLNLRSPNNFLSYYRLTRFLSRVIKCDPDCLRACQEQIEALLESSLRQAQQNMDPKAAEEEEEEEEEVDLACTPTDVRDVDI
# Method: The assays were performed using microfluidic kinase detection technology (Caliper Assay Platform). The compounds were tested in 12-point dose-response format in singlicate at Km for ATP. Phosphoacceptor substrate peptide concentration used was 1 μM for all assays and Staurosporine was used as the reference compound for all assays. Specifics of each assay are as described below:
# CDK4/CyclinD1: Enzyme concentration: 1 nM; ATP concentration: 200 μM; Incubation time: 10 hr.
# [19] = Group 2: Compound T 100 mg/kg PO qdx5x4 and topotecan vehicle
structure (smiles),measurement,setting,value
CC(C)N1CCN(c2ccc(Nc3ncc4cc5n(c4n3)C3(CCCCC3)CNC5=O)nc2)CC1 [Compound GG],EC50,[1],2920 nM
same,EC50,[2],2690 nM
same,EC50,"[3]; Homo sapiens, Hs68, HS68 cells",80 nM
same,IC50,[4],4.7 nM
same,EC50,[5],52 nM
same,EC50,[6],62 nM
same,AUC 0-inf (uM * h) i.v.,[7],1.1 µM·h
same,AUC (uM * h) p.o.,[7],1.9 µM·h
same,Cmax,[7],1.9 µM
same,Tmax (h) p.o.,[7],1 h
same,t1/2 (h) p.o.,[7],3.5 h
CN1CCN(c2ccc(Nc3ncc4cc5n(c4n3)C3(CCCCC3)CNC5=O)nc2)CC1 [Compound T],Rb phosphorylation at Ser780 and Ser807/811 (in words),[8],blocks Rb phosphorylation in Rb-positive cell lines by 16 hours post exposure; also recorded: reduced Rb-phosphorylation starting 16 hours after treatment
same,EC50,[1],> 3000 nM
same,activity toward NCI-H69 xenografts / tumor volume (in words),"[9]; Compound T alone 100 mg/kg, topotecan 0.6 mg/kg, combination with each Compound T dose (100, 50 or 10 mg/kg), FIG. 16",inactive
same,tolerability: weight loss or toxicity (in words),"[9]; Compound T alone or thirty minutes before topotecan, FIG. 13",well tolerated with no additive weight loss or toxicity
same,CR (tumor volume < 15 mm^3),[9]; [19],0
same,LTS (individual tumor volume < volume endpoint at study time endpoint),[9]; [19],0
same,MTTE ± SD (timepoint in days to reach designated tumor volume or time endpoint),[9]; [19],14 ± 4 days
same,PR (%) (tumor volume ≥ 50% regression versus Day 0),[9]; [19],0%
same,T-C (difference in days between MTTE of treatment and control groups),[9]; [19],<0 days
same,TFS (complete responder at study endpoint),[9]; [19],0
same,Rb phosphorylation at Ser780 and Ser807/811 (in words),[10],but not in the Rb-negative cell line (A2058)
same,cell cycle distribution at 300 nM (in words),[11],does not cause a loss of the S-phase peak
same,EC50,[2],> 3000 nM
same,EC50,"[3]; Homo sapiens, Hs68, HS68 cells",100 nM
same,Rb phosphorylation at Ser780 and Ser807/811 (in words),[12],blocks Rb phosphorylation in Rb-positive cell lines by 16 hours post exposure; also recorded: reduced Rb-phosphorylation starting 16 hours after treatment
same,cell cycle distribution at 300 nM (in words),"[13]; 300 nM, 24 hours",loss of the S-phase peak
same,EC50,"[13]; 24 hours treatment, read-out: G1 cell cycle arrest EC50",80 nM
same,S-phase fraction at the highest concentration shown,"[13]; 24 hours, 28% at baseline",6%
same,"cell cycle distribution, increasing concentrations (in words)","[13]; 24 hours, FIG. 9A",robust G1 cell cycle arrest; also recorded: clean G1 arrest accompanied by a corresponding decrease in the number of cells in S-phase
same,"number of 395 non-mutant kinases inhibited, inhibitory threshold 65%",[14],92
same,"number of 395 non-mutant kinases inhibited, inhibitory threshold 90%",[14],31
same,"number of 395 non-mutant kinases inhibited, inhibitory threshold 99%",[14],6
same,"share of 395 non-mutant kinases inhibited, inhibitory threshold 65%",[14],23.3%
same,"share of 395 non-mutant kinases inhibited, inhibitory threshold 90%",[14],7.8%
same,"share of 395 non-mutant kinases inhibited, inhibitory threshold 99%",[14],1.5%
same,cell cycle distribution at 300 nM (in words),[15],loss of the S-phase peak
same,EC50,[5],49 nM
same,EC50,[6],36 nM
same,AUC 0-inf (uM * h) i.v.,[7],1.3 µM·h
same,AUC (uM * h) p.o.,[7],2.9 µM·h
same,Cmax,[7],2.5 µM
same,Tmax (h) p.o.,[7],1 h
same,t1/2 (h) p.o.,[7],5 h
same,effect on tumor growth / tumor size (in words),[16],very little effect of slowing tumor growth
CCN(CC)C1CCN(c2ccc(Nc3ncc4cc5n(c4n3)C3(CCCCC3)CNC5=O)nc2)C1 (stereo not shown) [UU],Fold Selectivity (CDK2/CycE/CDK4),[17],542
same,IC50,"[17]; ATP 100 μM, 1 hr, read-out: CDK2/CycE IC50",3.96 µM
same,EC50,[3]; HS68 cells,300 nM
same,IC50,[18],7.3 nM
